A word on the inhibition: it is the share of the control response that was lost under treatment. A higher inhibition goes with a response far below the control.

This assay has as its target T1, p38α (Homo sapiens, UniProt Q16539).
T1 construct: GST-tagged fusion protein corresponding to full-length human p38α; purchased Upstate 14-251; host or cells: E. coli
The assay is described as follows: Inhibition of p38α enzyme activity (IMAP fluorescence polarisation kinase assay). Type of assay: biochemical. The note with it: at 1 μM compound; ATP 20 μM; 2 h at RT. The protocol: Inhibition of p38α Enzyme Activity:
Compound stocks in 100% DMSO are first diluted in DMSO to a concentration of 1×10^−3 up to 3.2×10^−8 M and then further diluted in kinase assay buffer (10 mM Tris-HCl, pH 7.2, 10 mM MgCl2, 0.01% tween 20, 0.05% NaN3, 1 mM dithiothreitol) to a concentration range of 4×10^−5 up to 1.3×10^−9 M. Of each compound solution 5 μL is transferred into a 384-wells black Optiplate (Packard, 6007279), followed by the addition of 5 μL of ATP (Boehringer, 519987), 5 μL of Fluorescein-labeled EGFR (Epidermal Growth Factor Receptor) peptide substrate and 5 μL of active p38 cc kinase (GST-tagged fusion protein corresponding to full-length human p38α; expressed in E. coli by Upstate, 14-251), all diluted in kinase assay buffer (see final concentrations in Table 1). The mixture is incubated for 2 h at room temperature (RT). The reaction is stopped by the addition of 60 μL of IMAP binding reagent, which has been diluted 400-fold in IMAP binding buffer (stock concentration 5 times diluted in Milli Q). After incubation for 30 min at RT, FP is measured on an Analyst™ multimode fluorescence plate reader (Molecular Devices) at excitation wavelength of 485 nm and emission wavelength of 530 nm (1 sec/well).
Data handling is performed as follows: percentage effects are calculated based on no-p38-enzyme-addition as the maximum inhibitory effect and with p38 enzyme addition as the minimum inhibitory effect. In each experiment, individual compound concentrations are tested in duplicate and percentage effect is calculated for each concentration.
On the technique in general: Fluorescence polarisation rises when a labelled molecule tumbles more slowly, as on binding a larger partner.

T1 sequence (Q16539 whole entry, the tested form may be a part): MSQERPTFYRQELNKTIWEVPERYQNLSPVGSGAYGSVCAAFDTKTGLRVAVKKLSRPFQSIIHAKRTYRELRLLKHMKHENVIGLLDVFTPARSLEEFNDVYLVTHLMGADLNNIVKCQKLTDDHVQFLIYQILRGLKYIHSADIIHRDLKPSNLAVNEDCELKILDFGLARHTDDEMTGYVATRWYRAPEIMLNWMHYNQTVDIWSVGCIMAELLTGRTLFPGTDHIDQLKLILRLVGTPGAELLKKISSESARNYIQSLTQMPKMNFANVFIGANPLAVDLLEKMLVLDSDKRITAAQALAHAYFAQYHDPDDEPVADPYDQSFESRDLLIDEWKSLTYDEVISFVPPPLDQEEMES

For the compound `Cn1c(C(=O)NCCN2CCCCC2)cc2nc(-c3ccc(F)cc3)c(-c3ccncc3)c(-c3ccc(F)cc3)c21` [Example 31, 5,7-Bis-(4-fluoro-phenyl)-1-methyl-6-pyridin-4-yl-1H-pyrrolo[3,2-b]pyridine-2-carboxylic acid (2-piperidin-1-yl-ethyl)-amide], the inhibition at 1 µM is greater than 50%.

`Cn1c(C(=O)N2CCOCC2)cc2nc(-c3ccc(F)cc3)c(-c3ccncc3)c(-c3ccc(F)cc3)c21` [Example 14, [5,7-Bis(4-fluorophenyl)-1-methyl-6-(4-pyridyl)pyrrolo[3,2-b]pyridin-2-yl]morpholin-4-ylmethanone] yielded an inhibition at 1 µM greater than 50%.

In turn, `Cc1nc2cc(-c3ccnc(NCC4CC4)n3)c(-c3ccc(F)cc3)nc2s1` [Example 52, Cyclopropylmethyl-{4-[5-(4-fluoro-phenyl)-2-methyl-thiazolo[5,4-b]pyridin-6-yl]-pyrimidin-2-yl}-amine] had an inhibition at 1 µM greater than 50%.

As for `COCCCNc1nccc(-c2cc3c(C)noc3nc2-c2ccc(F)cc2)n1` [Example 41, {4-[6-(4-Fluoro-phenyl)-3-methyl-isoxazolo[5,4-b]pyridin-5-yl]-pyrimidin-2-yl}-(3-methoxy-propyl)-amine], the inhibition at 1 µM is greater than 50%.

As to `COc1ccc(-c2nc3cc[nH]c3cc2-c2ccnc(NCC3CC3)n2)cc1` [Example 46, Cyclopropylmethyl-{4-[5-(4-methoxy-phenyl)-1H-pyrrolo[3,2-b]pyridin-6-yl]-pyrimidin-2-yl}-amine], the inhibition at 1 µM was greater than 50%.

The compound `O=C(NCCN1CCOCC1)c1cc2c(-c3ccc(F)cc3)c(-c3ccncc3)c(-c3ccc(F)cc3)nc2o1` [Example 25, 4,6-Bis-(4-fluoro-phenyl)-5-pyridin-4-yl-furo[2,3-b]pyridine-2-carboxylic acid (2-morpholin-4-yl-ethyl)-amide] registered an inhibition at 1 µM greater than 50%.

In the case of `OCc1cc2c(-c3ccc(F)cc3)c(-c3ccncc3)c(-c3ccc(F)cc3)nc2o1` [Example 22, [4,6-Bis(4-fluorophenyl)-5-(4-pyridyl)furo[2,3-b]pyridin-2-yl]methanol], the inhibition at 1 µM is greater than 50%.

With `CCOC(=O)c1nc2nc(-c3ccc(F)cc3)c(-c3ccncc3)c(-c3ccc(F)cc3)c2n1C` [Example 5, Ethyl 5,7-bis(4-fluorophenyl)-1-methyl-6-(4-pyridyl)imidazo[4,5-b]pyridine-2-carboxylate], the inhibition at 1 µM was greater than 50%.

In turn, `CC(=O)c1nc2nc(-c3ccc(F)cc3)c(-c3ccncc3)c(-c3ccc(F)cc3)c2n1C` [Example 19, 1-[5,7-Bis(4-fluorophenyl)-1-methyl-6-(4-pyridyl)imidazo[4,5-b]pyridin-2-yl]ethanone] gave an inhibition at 1 µM greater than 50%.

Consider `Cc1nsc2nc(-c3ccc(F)cc3)c(-c3ccnc(NCC4CC4)n3)cc12` [Example 43, Cyclopropylmethyl-{4-[6-(4-fluoro-phenyl)-3-methyl-isothiazolo[5,4-b]pyridin-5-yl]-pyrimidin-2-yl}-amine], for which the inhibition at 1 µM is greater than 50%.

`O=C(NCCN1CCCCC1)c1cc2c(-c3ccc(F)cc3)c(-c3ccncc3)c(-c3ccc(F)cc3)nc2o1` [Example 26, 4,6-Bis-(4-fluoro-phenyl)-5-pyridin-4-yl-furo[2,3-b]pyridine-2-carboxylic acid (2-piperidin-1-yl-ethyl)-amide] gave an inhibition at 1 µM greater than 50%.

The values above are taken from patent US20080318977A1, “Condensed Pyridines as Kinase Inhibitors” (Palau Pharma, S.A., priority 2004, published 2008).
